# Reference: patent publication US5972598A, “Methods for preventing multidrug resistance in cancer cells” (priority 1995, dated 1999)
# “Also recorded” adds a separate entry of the source. Like-named read-outs stand apart in the source and are kept apart here.
# Columns and labels:
# [1] = biological target: T1, P-glycoprotein (Homo sapiens, UniProt P08183); experiment: Rh123 accumulation assay of P-glycoprotein activity in human PBL
# Description: KG1 cell line was maintained in Iscove's modified Dulbecco medium with 20% fetal calf serum (FCS) and 2 mM L-glutamine, 100 units/ml penicillin and 100 μg/ml streptomycin (GIBCO Laboratories, Grand Island, N.Y.).
# A functional assay was used to detect changes in P-glycoprotein activity in human PBL treated with different agents that induce lymphoid differentiation or activation, based on flow cytometric analysis of cellular accumulation of Rh123, which is a P-glycoprotein-transported fluorescent mitochondrial dye. In this assay, cells expressing little or no P-glycoprotein stain brightly with Rh123, whereas cells with higher levels of P-glycoprotein activity appear Rh123-dull. […] Since the best-known cellular effect of TPA is the stimulation of PKC, it was also tested whether DOG, a cell-permeable diacylglycerol and a physiological stimulant of PKC, would have an effect on Rh123 accumulation in PBL.
# [2] = tested on: MDR1; format: cell-based, human
# Description: The times of drug exposure are indicated.
# (§1) (Commercially-available kits (for example, from GIBCO/BRL, Gaithersburg, Md.) can be advantageously modified for making cDNA using random hexamers.) PCR is then performed using the following primers: […]
# Next, it was tested whether drug-induced MDR1 expression was maintained after the cytotoxic treatment. […] At different time points, MDR1 expression in the surviving cells was analyzed by dye efflux and immunofluorescence labeling with UIC2 (FIG. 3c) or by cDNA-PCR (FIG. 4e).
# [3] = biological target: T1, P-glycoprotein; experiment: Dye efflux (Rh123 or DiOC2 (3)) assay of drug-treated K562 cells
# Description: Top panel: Rh123 efflux from untreated cells (-) and from cells treated with 50 μM Ara-C (ARA) for 12 hours or with 10 μAra-C for 2 to 3 days.
# [4] = tested on: MDR1; experiment: cDNA-PCR / flow cytometric analysis of MDR1 induction by PKC agonists; format: cell-based, human
# Description: Neomycin sulfate (Calbiochem) was dissolved in sterile, deionized water.
# (§2) P-glycoprotein expression on the cell surface was analyzed using a P-glycoprotein-specific mouse IgG2a monoclonal antibody (mAB) UIC2 (Mechetner and Roninson, 1992, Proc. Natl. Acad. Sci. USA 89:5824-5828). Mouse IgG2a isotype control antibody was obtained from Sigma. For staining of PBL with UIC2 mAB or isotype control, 10^6 cells were stained at 4° C. with 10 μg of the antibody for 30 minutes and, after two washes, stained for 30 minutes with 10 μg of FITC-conjugated goat anti-mouse IgG2a antibody (Fisher Scientific, Fairlawn, N.J.), diluted 1:2 with PBS plus 2% FCS. Cells were then washed twice with ice-cold PBS plus 2% FCS, stained with PI and kept on ice until analysis. Essentially the same protocol was used for staining of other cell types except that 2 μg of the secondary antibody were used per 10^6 cells. In some experiments, phycoerythrine (PE)-conjugated goat anti-mouse IgG2a was used as the secondary antibody; no PI was added in such cases. Flow cytometric analysis was conducted on a Coulter Epics 753 Flow Cytometer.
# RNA was extracted from approximately 10^6 cells by a small-scale sodium dodecyl sulfate extraction procedure (Peppel and Baglioni, 1990, BioTechniques 9:711-713). In the alternative, RNA was isolated from cells using the TRIzol method (commercially available from GIBCO/BRL). cDNA synthesis and polymerase chain reaction (PCR) amplification of MDR1 and β2 -microglobulin cDNA sequences were carried out essentially as described (Noonan et al., 1990, Proc. Natl. Acad. Sci. USA 87:7160-7164; Noonan and Roninson, 1991, pp. 319-333 In Roninson (Ed.), Molecular and Cellular Biology of Multidrug Resistance in Tumor Cells, Plenum Press, New York). Briefly, cDNA was prepared using the method of Krug and Berger (1987, Meth. Enzymol. 152: 316-324), with the modification that random hexamers were substituted for oligo(dT) as primers for cDNA synthesis. (Commercially-available kits (for example, from GIBCO/BRL, Gaithersburg, Md.) can be advantageously modified for making cDNA using random hexamers.) PCR is then performed using the following primers: […]
# (§3) (where β2 M represents β2 microglobulin). PCR was performed for β2 M experiments under a regime consisting of 1 cycle comprising denaturation at 94° C. for 3 minutes, primer annealing at 60° C. for 30 seconds, and primer extension at 72° C. for 1 minute, followed by 19 cycles comprising denaturation at 94° C. for 30 seconds, primer annealing at 60° C. for 30 seconds, and primer extension at 72° C. for 1 minute, followed by a final cycle comprising denaturation at 94° C. for 30 seconds, primer annealing at 60° C. for 30 seconds, and primer extension at 72° C. for 5 minutes. MDR1 cDNA sequences were amplified using the identical protocol as for β2 M, but extending the amplification from 19 cycles to 25 cycles. In addition, the cDNA-PCR amplification protocol contained the following modifications: (i) Taq DNA polymerase was added to the PCR mixtures after initial heating of the samples to 94° C. (ii) The yield of the β2 -microglobulin-specific band, obtained after 22-28 cycles of PCR, was used as the primary criterion for equalizing the starting amounts of the cDNA templates in different preparations, in order to account for differential RNA degradation in cells subjected to different types of treatment. […] PCR products were detected by autoradiography.
# [5] = tested on: MDR1; experiment: Inhibition of PKC agonist (TPA or DOG) induced MDR1 expression; format: cell-based, human; conditions: for inhibition of TPA-induced MDR1 expression: H-9 cells, TPA 10 ng/ml overnight
# Description: as §1
# Cells were plated in 6-well Falcon tissue culture plates at 3,300 cells per well, and incubated in the appropriate concentrations of drugs. […] or TPA, with the exception of herbimycin A, which was added 12 hours prior to Ara-C or TPA, and tyrphostins A25 and B46, which were each added 16 hours prior to MDR1 induction by the addition of Ara-C or TPA. Cells were incubated overnight (TPA) or for 10 hours (Ara-C) at 37° C. under an atmosphere of 5% CO2 after the addition of the MDR1 inducing agents before harvesting for cDNA-PCR analysis.
# (§4) cDNA-PCR analyses on each culture treated with drugs, or in control cultures incubated in the absence or presence of Ara-C or TPA alone, were performed as described in Section 6.1.3 above.
# [6] = tested on: MDR1; experiment: Inhibition of cytotoxic drug (Ara-C) induced MDR1 expression by protein kinase inhibitors; format: cell-based, human
# Description: FIG. 5. Effect of protein kinase inhibitors on MDR1 mRNA induction by cytotoxic drugs in H9 cells. […]
# as §1, §3
# Cells were plated in 6-well Falcon tissue culture plates at 3,300 cells per well, and incubated in the appropriate concentrations of drugs. Each of the protein kinase inhibitors to be tested were added at their appropriate final concentrations 45 minutes prior to MDR1 induction by the addition of Ara-C or TPA, with the exception of herbimycin A, which was added 12 hours prior to Ara-C or TPA, and tyrphostins A25 and B46, which were each added 16 hours prior to MDR1 induction by the addition of Ara-C or TPA. Cells were incubated overnight (TPA) or for 10 hours (Ara-C) at 37° C. under an atmosphere of 5% CO2 after the addition of the MDR1 inducing agents before harvesting for cDNA-PCR analysis.
# In addition to these conditions, the analysis of certain drugs imposed added requirements. For experiments using calphostin C, cells were incubated under direct white light illumination. For experiments using D,L-threo-sphingosine, the cell culture medium was pre-treated with the appropriate concentration of the drug for one hour at 37° C. with continuous gentle mixing. After this pre-treatment, cells were resuspended in media supplemented with drug and incubated for 45 minutes as described above.
# as §4
# To further evaluate the capacity of protein kinase inhibitors to suppress MDR1 induction by cytotoxic drugs and PKC agonists, H-9 human T cell leukemia cells were used in cDNA-PCR assays to examine induced MDR1 mRNA expression levels in the presence of such protein kinase inhibitors.
# [7] = tested on: MRP; experiment: Inhibition of MRP expression in H-9 cells; format: cell-based, human; design: Inhibition of MRP Expression: key to the marks not given beside the values; conditions: 32 μM
# Description: PCR was performed using the following primers: […]
# (where β2 M represents β2 microglobulin). PCR was performed for β2 M experiments under a regime consisting of 1 cycle comprising denaturation at 94° C. for 3 minutes, primer annealing at 60° C. for 30 seconds, and primer extension at 72° C. for 1 minute, followed by 19 cycles comprising denaturation at 94° C. for 30 seconds, primer annealing at 60° C. for 30 seconds, and primer extension at 72° C. for 1 minute, followed by a final cycle comprising denaturation at 94° C. for 30 seconds, primer annealing at 60° C. for 30 seconds, and primer extension at 72° C. for 5 minutes.
# [8] = tested on: P-glycoprotein
# Description: as §2, with “Mouse” for “P-glycoprotein expression on the cell surface was analyzed using a P-glycoprotein-specific mouse IgG2a monoclonal antibody (mAB) UIC2 (Mechetner and Roninson, 1992, Proc. Natl. Acad. Sci. USA 89:5824-5828). Mouse”, “cases.” for “cases. Flow cytometric analysis was conducted on a Coulter Epics 753 Flow Cytometer.”
# [9] = tested on: tumor; conditions: nude mice; Meyer et al., 1989; cited from earlier work
# T1 sequence (P08183 whole entry): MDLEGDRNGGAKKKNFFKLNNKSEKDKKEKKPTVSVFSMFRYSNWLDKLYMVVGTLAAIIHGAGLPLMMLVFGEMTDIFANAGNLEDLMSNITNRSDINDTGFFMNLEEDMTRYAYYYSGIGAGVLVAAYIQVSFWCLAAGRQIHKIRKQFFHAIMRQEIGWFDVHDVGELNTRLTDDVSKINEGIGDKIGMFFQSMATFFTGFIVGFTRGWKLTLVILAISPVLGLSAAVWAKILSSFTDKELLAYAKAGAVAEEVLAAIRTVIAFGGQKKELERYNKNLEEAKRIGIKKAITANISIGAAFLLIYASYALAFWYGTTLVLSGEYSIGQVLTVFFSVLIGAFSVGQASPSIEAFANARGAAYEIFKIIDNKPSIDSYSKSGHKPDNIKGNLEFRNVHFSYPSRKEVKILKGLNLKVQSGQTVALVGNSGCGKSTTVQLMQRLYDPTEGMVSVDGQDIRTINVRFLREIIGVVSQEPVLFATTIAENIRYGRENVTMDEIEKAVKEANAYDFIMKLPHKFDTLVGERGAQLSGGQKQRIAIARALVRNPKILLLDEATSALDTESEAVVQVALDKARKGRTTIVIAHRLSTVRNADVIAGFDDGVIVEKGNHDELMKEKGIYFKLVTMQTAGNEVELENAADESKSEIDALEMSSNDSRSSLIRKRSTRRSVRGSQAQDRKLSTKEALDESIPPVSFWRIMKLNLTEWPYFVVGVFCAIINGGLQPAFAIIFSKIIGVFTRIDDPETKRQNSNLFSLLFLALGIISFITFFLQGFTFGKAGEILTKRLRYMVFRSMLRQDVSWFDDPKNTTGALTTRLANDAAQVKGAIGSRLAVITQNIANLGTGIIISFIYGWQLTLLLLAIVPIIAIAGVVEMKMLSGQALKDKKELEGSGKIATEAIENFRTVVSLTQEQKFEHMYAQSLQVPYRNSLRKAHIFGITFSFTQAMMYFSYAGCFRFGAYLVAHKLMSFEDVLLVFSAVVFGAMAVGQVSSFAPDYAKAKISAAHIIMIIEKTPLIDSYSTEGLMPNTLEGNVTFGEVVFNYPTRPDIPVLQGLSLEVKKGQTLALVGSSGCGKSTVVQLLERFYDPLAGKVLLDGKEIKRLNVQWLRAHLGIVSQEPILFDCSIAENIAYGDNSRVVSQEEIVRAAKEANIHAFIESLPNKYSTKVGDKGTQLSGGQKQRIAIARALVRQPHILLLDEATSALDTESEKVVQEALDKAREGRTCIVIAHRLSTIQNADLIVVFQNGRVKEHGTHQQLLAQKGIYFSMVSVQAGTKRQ
compound,measurement,setting,value
CNc1ccc2oc(C[C@H]3O[C@@]4(CC[C@H]3C)O[C@H]([C@H](C)C(=O)c3ccc[nH]3)[C@H](C)C[C@H]4C)nc2c1C(=O)O [A23187],effect on P-glycoprotein activity (Rh123 accumulation),[1]; human PBL,No apparent effects on P-glycoprotein
COc1cccc2c1C(=O)c1c(O)c3c(c(O)c1C2=O)C[C@@](O)(C(=O)CO)C[C@@H]3O[C@H]1C[C@H](N)[C@H](O)[C@H](C)O1 [Adriamycin],MDR1 mRNA expression,[2]; H9 T-cell leukemia,MDR1 mRNA expression was induced
same,MDR1 mRNA induction,[2]; K562 cells,induce MDR1 mRNA expression
same,maintenance of MDR1 expression after removal of the drug,"[2]; K562 cells treated 3-5 days, then grown in absence of drug",least several weeks
same,MDR1 mRNA expression,"[2]; KB-3-1 epidermoid carcinoma, 2 days",MDR1 mRNA expression was induced
same,"MDR1 induction, mRNA and protein levels","[2]; human leukemia and solid-tumor derived cell lines, subpopulation of treated cells","MDR1 induction, both at the mRNA and at the protein levels, was observed"
same,treated cells showing efflux of Rh123 or DiOC2 (3),[3],3-10%
"CCCCCCCC(=O)OCC(CO)OC(=O)CCCCCCC (centres unmarked) [DOG, 1,2-dioctanoylglycerol]",effect on P-glycoprotein activity (Rh123 accumulation),[1]; human PBL,decreased Rh123 accumulation
same,induction of MDR1 mRNA and P-glycoprotein,[4]; H9 cells,clear-cut induction of MDR1 mRNA and P-glycoprotein
same,induction of MDR1 mRNA and P-glycoprotein,[4]; K562 cells,clear-cut induction of MDR1 mRNA and P-glycoprotein
NC(=O)NO [hydroxyurea],"MDR1 induction, mRNA and protein levels",[2],"MDR1 induction, both at the mRNA and at the protein levels, was observed"
same,MDR1 mRNA induction,[2],induce MDR1 mRNA expression
same,treated cells showing efflux of Rh123 or DiOC2 (3),[3],3-10%
"COC(=O)C=Cc1cc(O)ccc1O [methyl-2,5-dihydroxycinnamate]",inhibition of TPA-induced MDR1 expression,[5]; 32 μM,completely inhibited TPA-induced MDR1 expression
same,inhibition of Ara-C induced MDR1 expression,"[6]; H9 cells, 25 μM Ara-C 10 h, 32 μM",++++
same,inhibition of Ara-C induced MDR1 expression,"[6]; H-9 cells, 32 μM",completely inhibit Ara-C induced MDR1 expression
same,inhibition of Ara-C induced MDR1 expression,"[6]; H-9 cells, 32 μM and 64 μM",inhibits MDR1 expression at both 32 μM and 64 μM to essentially the same degree
same,Inhibition of MRP Expression,[7],++++
same,inhibition of MRP expression,[7],strongly inhibited; also recorded: capable of inhibiting MRP expression
CN[C@@H]1C[C@H]2O[C@@](C)([C@@H]1OC)n1c3ccccc3c3c4c(c5c6ccccc6n2c5c31)C(=O)NC4 [staurosporine],inhibition of DOG-induced MDR1 induction,"[5]; H9 cells, staurosporine 30 nM, 30 minutes prior to DOG",completely abolished MDR1 induction
same,inhibition of TPA-induced MDR1 induction,"[5]; H9 cells, staurosporine 30 nM, 30 minutes prior to TPA",completely abolished MDR1 induction
same,inhibition of TPA-induced MDR1 expression,[5]; 30 nM,completely inhibited TPA-induced MDR1 expression
same,"prevention of MDR1 induction by TPA, diacylglycerol, Ara-C, vinblastine, methotrexate and Adriamycin","[6]; P-glycoprotein-negative cells, 30 nM",prevent MDR1 induction
same,"P-glycoprotein expression, inhibitor alone","[8]; KG1a cells, staurosporine 100 nM",significant increase in P-glycoprotein expression
same,"P-glycoprotein expression, inhibitor alone",[8]; KG1 cells,significant increase in P-glycoprotein expression
same,"MDR1 expression, inhibitor alone","[8]; P-glycoprotein-negative H9 cells, 30 nM",did not induce MDR1 expression
same,anti-tumor effect at fraction of MTD,[9],1/10
same,maximum tolerated dose (MTD),[9],1 mg/kg
IL-1α,effect on P-glycoprotein activity (Rh123 accumulation),[1],No apparent effects on P-glycoprotein
